≈ marks a conversion by molar mass, not a printed value.
Columns and labels:
LdTopIB = test system: LdTopIB; set-up: method as in PMID 24433962, doi:10.1016/j.molstruc.2019.03.032, PMID 34311084, PMID 36444862; conditions: Figure 2; cited from earlier work
[1] = test system: promastigotes and the amastigotes forms of Leishmania (L.) species; set-up: method as in PMID 24433962, doi:10.1016/j.molstruc.2019.03.032, PMID 34311084, PMID 36444862; conditions: Figure 2; cited from earlier work

Structure (SMILES) | IC50 (LdTopIB) | melting point | EC50 [1] | IC50 [1]
COC(=O)C1CC2CCCN2C12C(=O)N(Cc1ccccc1)c1ccccc12 (centres unmarked) [compound 15] | 3.29 µM | 138 to 140 °C |  | 
Cc1ccc(C(CC(=O)c2ccccc2)C2C(=O)Nc3ccccc32)cc1 (centres unmarked) [compound 16] |  | 112 to 114 °C | 16.2 µg/mL (≈ 45.6 µM) | 
O=C(c1ccc(F)cc1)C1C(c2ccc(Cl)cc2Cl)C2CSCN2C12C(=O)Nc1ccccc12 (centres unmarked) [compound 17] |  | 103 to 105 °C |  | 39.8 ± 0.43 µM
O=C1NC(=O)C2(CC(c3ccccc3)N(Cc3ccccc3)C(c3ccccc3)C2)N1c1ccccc1 (centres unmarked) [compound 19] |  | 142 to 144 °C |  | 0.89 µM
